In ChEMBL document CHEMBL1138723, “Design of bivalent ligands using hydrogen bond linkers: synthesis and evaluation of inhibitors for human beta-tryptase” (Bioorg Med Chem Lett, 2004):

Legend:
[1] = target: Voltage-gated inwardly rectifying potassium channel KCNH2 (Homo sapiens, UniProt Q12809); assay: Inhibitory activity against human Potassium channel HERG
Cytochrome P450 2C19 = Cytochrome P450 2C19 (Homo sapiens, UniProt P33261); assay: Inhibitory activity against cytochrome P450 determined using human liver microsome upon 15 min incubation with probes substrates s-mephenytoin (2C19); format: ADME, microsomes
Tryptase beta-1 = Tryptase beta-1 (Homo sapiens, UniProt Q15661); assay: Inhibitory activity against human mast cell tryptase beta
Cytochrome P450 2C9 = Cytochrome P450 2C9 (Homo sapiens, UniProt P11712); assay: Inhibitory activity against cytochrome P450 determined using human liver microsome upon 15 min incubation with probes substrates Tolbutamide (2C9); format: ADME, microsomes
Chain of Cytochrome P450 2C9 (P11712 whole entry): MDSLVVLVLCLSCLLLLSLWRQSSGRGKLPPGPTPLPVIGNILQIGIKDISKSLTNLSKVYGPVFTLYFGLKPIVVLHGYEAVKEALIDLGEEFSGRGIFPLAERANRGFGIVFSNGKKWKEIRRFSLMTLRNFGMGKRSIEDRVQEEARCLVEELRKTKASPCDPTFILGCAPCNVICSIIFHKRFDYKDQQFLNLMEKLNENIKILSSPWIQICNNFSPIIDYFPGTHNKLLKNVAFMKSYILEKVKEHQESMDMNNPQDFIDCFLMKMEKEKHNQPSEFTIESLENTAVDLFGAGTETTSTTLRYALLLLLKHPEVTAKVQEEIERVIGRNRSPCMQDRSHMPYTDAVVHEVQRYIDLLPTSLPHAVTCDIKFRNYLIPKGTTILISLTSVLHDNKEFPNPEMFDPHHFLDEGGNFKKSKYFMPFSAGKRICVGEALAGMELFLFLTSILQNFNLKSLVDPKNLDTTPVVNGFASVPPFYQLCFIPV

Chain of Tryptase beta-1 (Q15661 whole entry): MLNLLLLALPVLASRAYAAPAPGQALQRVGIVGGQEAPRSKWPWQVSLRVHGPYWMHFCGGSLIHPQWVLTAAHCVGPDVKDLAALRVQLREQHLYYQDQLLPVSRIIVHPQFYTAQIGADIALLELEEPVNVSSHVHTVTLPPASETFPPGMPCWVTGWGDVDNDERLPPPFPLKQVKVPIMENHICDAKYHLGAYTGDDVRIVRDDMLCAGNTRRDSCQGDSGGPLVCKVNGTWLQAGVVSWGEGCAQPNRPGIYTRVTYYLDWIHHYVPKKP
Chain of Voltage-gated inwardly rectifying potassium channel KCNH2 (Q12809 whole entry): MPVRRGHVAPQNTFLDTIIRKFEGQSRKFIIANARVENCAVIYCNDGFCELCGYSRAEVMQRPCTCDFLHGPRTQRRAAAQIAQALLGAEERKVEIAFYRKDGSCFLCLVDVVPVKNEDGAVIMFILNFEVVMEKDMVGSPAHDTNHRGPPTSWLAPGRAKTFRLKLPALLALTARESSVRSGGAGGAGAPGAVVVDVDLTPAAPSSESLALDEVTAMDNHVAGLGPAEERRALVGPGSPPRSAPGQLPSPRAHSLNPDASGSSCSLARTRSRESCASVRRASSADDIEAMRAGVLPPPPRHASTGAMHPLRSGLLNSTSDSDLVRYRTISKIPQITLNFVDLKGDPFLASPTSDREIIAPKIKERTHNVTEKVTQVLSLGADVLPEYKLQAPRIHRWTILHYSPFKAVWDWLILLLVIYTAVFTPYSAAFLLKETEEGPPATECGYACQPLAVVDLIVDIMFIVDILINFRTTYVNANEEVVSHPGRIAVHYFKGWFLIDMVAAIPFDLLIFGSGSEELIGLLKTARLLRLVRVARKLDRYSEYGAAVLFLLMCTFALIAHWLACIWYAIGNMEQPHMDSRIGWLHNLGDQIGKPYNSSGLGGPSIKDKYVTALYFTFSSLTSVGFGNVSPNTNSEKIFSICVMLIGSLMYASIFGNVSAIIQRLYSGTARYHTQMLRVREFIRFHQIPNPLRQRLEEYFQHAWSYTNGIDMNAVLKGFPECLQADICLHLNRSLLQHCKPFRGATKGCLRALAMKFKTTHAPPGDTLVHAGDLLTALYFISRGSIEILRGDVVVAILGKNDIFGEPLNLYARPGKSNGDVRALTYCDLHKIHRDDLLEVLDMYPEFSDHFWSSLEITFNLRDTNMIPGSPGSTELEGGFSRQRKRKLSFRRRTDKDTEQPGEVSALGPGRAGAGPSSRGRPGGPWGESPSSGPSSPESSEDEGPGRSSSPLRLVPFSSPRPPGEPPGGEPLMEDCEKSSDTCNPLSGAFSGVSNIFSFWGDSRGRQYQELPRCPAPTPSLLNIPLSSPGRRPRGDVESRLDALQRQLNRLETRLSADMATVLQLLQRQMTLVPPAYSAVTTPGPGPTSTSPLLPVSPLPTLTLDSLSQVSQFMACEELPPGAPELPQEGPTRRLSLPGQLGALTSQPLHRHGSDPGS
Chain of Cytochrome P450 2C19 (P33261 whole entry): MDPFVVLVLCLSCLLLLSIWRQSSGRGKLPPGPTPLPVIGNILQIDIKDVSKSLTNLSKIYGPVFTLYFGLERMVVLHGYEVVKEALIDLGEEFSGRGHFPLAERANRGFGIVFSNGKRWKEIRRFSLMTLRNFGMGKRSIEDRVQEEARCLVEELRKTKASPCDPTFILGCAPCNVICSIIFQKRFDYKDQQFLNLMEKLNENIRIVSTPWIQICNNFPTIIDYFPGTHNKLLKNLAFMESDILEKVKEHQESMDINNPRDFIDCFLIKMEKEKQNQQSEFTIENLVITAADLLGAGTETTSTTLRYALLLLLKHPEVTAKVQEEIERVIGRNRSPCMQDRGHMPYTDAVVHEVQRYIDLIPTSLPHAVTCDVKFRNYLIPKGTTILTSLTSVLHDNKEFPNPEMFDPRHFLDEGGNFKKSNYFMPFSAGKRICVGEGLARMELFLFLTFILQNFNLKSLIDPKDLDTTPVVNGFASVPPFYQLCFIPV

Row | Ki (Tryptase beta-1) [nM] | SMILES | IC50 [1] [nM] | IC50 (Cytochrome P450 2C19) [nM] | IC50 (Cytochrome P450 2C9) [nM]
1 | 59 | CCOC(=O)c1cc(C(=O)N2CCC(c3cc(CN)ccc3F)CC2)cc(-c2nc(-c3cccs3)no2)c1 | – | – | –
2 | 88 | NCc1ccc(F)c(C2CCN(C(=O)c3cc(C(=O)O)cc(-c4nc(-c5cccs5)no4)c3)CC2)c1 | 76800 | > 50000 | > 50000

Continued, compound first:

Row | SMILES | Ki (Tryptase beta-1) [nM] | IC50 [1] [nM] | IC50 (Cytochrome P450 2C19) [nM] | IC50 (Cytochrome P450 2C9) [nM]
3 | NCc1ccc(F)c(C2CCN(C(=O)c3cccc(-c4nc(-c5cccs5)no4)c3)CC2)c1 | 4.3 | 800 | 2190 | 480
4 | NCc1ccc(F)c(C2CCN(C(=O)c3cc(C(N)=O)cc(-c4nc(-c5cccs5)no4)c3)CC2)c1 | 1.3 | – | – | –
5 | NCc1cccc(C2CCN(C(=O)c3cc(C(N)=O)cc(-c4nc(-c5cccs5)no4)c3)CC2)c1 | 1.5 | – | – | –
